Source: patent US8088761B2, “Enzyme inhibitors” (Cancer Research Technology Limited, priority 2005, dated 2012)

What was measured:
Aurora-A = biological target: T1, Aurora-A (Homo sapiens, UniProt O14965); test: Flashplate Aurora A enzyme inhibition assay; type: biochemical; details: Flashplate assay; IC50 range; read-out: Aurora-A inhibition
T1 sequence (O14965 1-403): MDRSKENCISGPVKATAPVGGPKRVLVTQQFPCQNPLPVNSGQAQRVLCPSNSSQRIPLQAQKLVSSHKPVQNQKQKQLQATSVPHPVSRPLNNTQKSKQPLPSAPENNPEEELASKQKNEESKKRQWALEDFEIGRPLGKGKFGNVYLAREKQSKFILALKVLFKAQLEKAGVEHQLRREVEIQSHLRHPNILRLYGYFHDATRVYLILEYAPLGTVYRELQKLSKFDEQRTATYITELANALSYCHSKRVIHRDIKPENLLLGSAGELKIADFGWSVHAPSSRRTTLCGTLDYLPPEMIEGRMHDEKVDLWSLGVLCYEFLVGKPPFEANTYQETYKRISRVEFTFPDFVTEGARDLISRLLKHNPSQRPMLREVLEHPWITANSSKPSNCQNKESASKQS
Method in brief: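 This is a radiometric Flashplate format: plates were precoated with DTT, and compound (in 2% DMSO) was mixed with kinase buffer (pH 7.5 Tris, MgCl2, NaCl) containing 1 mM MBP, 20 μM ATP and ^33P-ATP. The reaction was started with 250 ng Aurora-A per well and incubated 2 h at RT. It was then stopped by 10 mM sodium pyrophosphate washing, and plates were scintillation-counted.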

HCT116 cells = test: Cell viability assay (MTT) in HCT116 cell line; type: cell-based; details: Homo sapiens, HCT-116, 72 hrs, IC50 range, read-out: HCT116 cell growth inhibition
Method in brief: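 MTT read-out (4 hrs, 37 °C, DMSO extraction) following 72 hrs of treatment with 0-50 μM Aurora inhibitor. HCT116 cells were plated a day earlier and tested in triplicate; IC50 derived from the curve.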

Row | IC50 (Aurora-A) | IC50 (HCT116 cells) | Compound
1 | < 500 nM | < 500 nM | CC(c1ccccc1)N1CCN(c2c(Br)cnc3[nH]c(-c4ccc(N5CCN(C)CC5)cc4)nc23)CC1 (stereo not drawn) [Example 71, 6-Bromo-2-[4-(4-methyl-piperazin-1-yl)-phenyl]-7-[4-(1-phenyl-ethyl)-piperazin-1-yl]-3H-imidazo[4,5-b]pyridine]
2 | < 500 nM | < 500 nM | O=C(CN1CCN(c2c(Cl)cnc3[nH]c(-c4ccc(CN5CCOCC5)cc4)nc23)CC1)Nc1nccs1 [Example 76, 2-{4-[6-Chloro-2-(4-morpholin-4-ylmethyl-phenyl)-3H-imidazo[4,5-b]pyridin-7-yl]-piperazin-1-yl}-N-thiazol-2-yl-acetamide]
3 | < 500 nM | < 500 nM | Brc1cnc2[nH]c(-c3ccc(Cn4cccn4)cc3)nc2c1N1CCN(Cc2ccncc2)CC1 [Example 78, 2-(4-((1H-Pyrazol-1-yl)methyl)phenyl)-6-bromo-7-(4-(pyridin-4-ylmethyl)piperazin-1-yl)-3H-imidazo[4,5-b]pyridine]
4 | < 500 nM | 500 to 2000 nM | COc1cccc(-c2nc3c(N4CCN(Cc5cc(C)on5)CC4)c(Br)cnc3[nH]2)c1 [Example 81, 6-Bromo-2-(3-methoxy-phenyl)-7-[4-(5-methyl-isoxazol-3-ylmethyl)-piperazin-1-yl]-3H-imidazo[4,5-b]pyridine]
5 | < 500 nM | < 500 nM | Brc1cnc2[nH]c(-c3ccc(OCCN4CCOCC4)cc3)nc2c1N1CCN(Cc2ccncc2)CC1 [Example 82, 6-Bromo-2-[4-(2-morpholin-4-yl-ethoxy)-phenyl]-7-(4-pyridin-4-ylmethyl-piperazin-1-yl)-3H-imidazo[4,5-b]pyridine]
6 | < 500 nM | < 500 nM | Clc1cnc2[nH]c(-c3ccc(Cn4cccn4)cc3)nc2c1N1CCN(Cc2ccncc2)CC1 [Example 83, 2-(4-((1H-Pyrazol-1-yl)methyl)phenyl)-6-chloro-7-(4-(pyridin-4-ylmethyl)piperazin-1-yl)-3H-imidazo[4,5-b]pyridine]
7 | < 500 nM | < 500 nM | O=C(CN1CCN(c2c(Cl)cnc3[nH]c(-c4ccc(Cn5cccn5)cc4)nc23)CC1)Nc1nccs1 [Example 84, 2-(4-(2-(4-((1H-Pyrazol-1-yl)methyl)phenyl)-6-chloro-3H-imidazo[4,5-b]pyridin-7-yl)piperazin-1-yl)-N-(thiazol-2-yl)acetamide]
8 | < 500 nM | < 500 nM | Clc1ccc(CN2CCN(c3c(Br)cnc4[nH]c(-c5ccc(Cn6cccn6)cc5)nc34)CC2)cc1 [Example 85, 2-(4-((1H-Pyrazol-1-yl)methyl)phenyl)-6-bromo-7-(4-(4-chlorobenzyl)piperazin-1-yl)-3H-imidazo[4,5-b]pyridine]
9 | < 500 nM | < 500 nM | CN1CCN(c2ccc(-c3nc4c(N5CCN(Cc6ccc(Cl)cc6)CC5)c(Br)cnc4[nH]3)cc2)CC1 [Example 86, 6-Bromo-7-[4-(4-chloro-benzyl)-piperazin-1-yl]-2-[4-(4-methyl-piperazin-1-yl)-phenyl]-3H-imidazo[4,5-b]pyridine]
10 | < 500 nM | 500 to 2000 nM | O=C(CN1CCN(c2c(Cl)cnc3[nH]c(-c4ccc5c(c4)OCCO5)nc23)CC1)Nc1nccs1 [Example 87, 2-{4-[6-Chloro-2-(2,3-dihydro-benzo[1,4]dioxin-6-yl)-3H-imidazo[4,5-b]pyridin-7-yl]-piperazin-1-yl}-N-thiazol-2-yl-acetamide]
11 | < 500 nM | 500 to 2000 nM | NCc1cccc(-c2nc3c(N4CCN(Cc5cccnc5)CC4)c(Br)cnc3[nH]2)c1 [Example 92, (3-(6-Bromo-7-(4-(pyridin-3-ylmethyl)piperazin-1-yl)-3H-imidazo[4,5-b]pyridin-2-yl)phenyl)methanamine]
12 | < 500 nM | 2000 to 50000 nM | COc1ccc(-c2nc3c(N4CCN(Cc5cccnc5)CC4)c(Br)cnc3[nH]2)cn1 [Example 94, 6-Bromo-2-(6-methoxypyridin-3-yl)-7-(4-(pyridin-3-ylmethyl)piperazin-1-yl)-3H-imidazo[4,5-b]pyridine]
13 | < 500 nM | 500 to 2000 nM | CC(c1ccncc1)N1CCN(c2c(Br)cnc3[nH]c(-c4cccc(CN5CCN(C)CC5)c4)nc23)CC1 (stereo not drawn) [Example 95, 6-Bromo-2-(3-((4-methylpiperazin-1-yl)methyl)phenyl)-7-(4-(1-(pyridin-4-yl)ethyl)piperazin-1-yl)-3H-imidazo[4,5-b]pyridine]
14 | < 500 nM | 500 to 2000 nM | CN1CCN(Cc2ccc(-c3nc4c(N5CCN(Cc6cccnc6)CC5)c(Br)cnc4[nH]3)cc2)CC1 [Example 96, 6-Bromo-2-(4-((4-methylpiperazin-1-yl)methyl)phenyl)-7-(4-(pyridin-3-ylmethyl)piperazin-1-yl)-3H-imidazo[4,5-b]pyridine]
15 | < 500 nM | 2000 to 50000 nM | CC(C)(C)OC(=O)NCCc1nc2c(N3CCN(Cc4cccnc4)CC3)c(Br)cnc2[nH]1 [Example 97, tert-Butyl 2-(6-bromo-7-(4-(pyridin-3-ylmethyl)piperazin-1-yl)-3H-imidazo[4,5-b]pyridin-2-yl)ethylcarbamate]
16 | 2000 to 10000 nM | 2000 to 50000 nM | NCCc1nc2c(N3CCN(Cc4cccnc4)CC3)c(Br)cnc2[nH]1 [Example 98, 2-(6-Bromo-7-(4-(pyridin-3-ylmethyl)piperazin-1-yl)-3H-imidazo[4,5-b]pyridin-2-yl)ethanamine]
17 | 2000 to 10000 nM | 2000 to 50000 nM | CC(C)(C)OC(=O)NCc1nc2c(N3CCN(Cc4cccnc4)CC3)c(Br)cnc2[nH]1 [Example 99, tert-Butyl (6-bromo-7-(4-(pyridin-3-ylmethyl)piperazin-1-yl)-3H-imidazo[4,5-b]pyridin-2-yl)methylcarbamate]
18 | 2000 to 10000 nM | 2000 to 50000 nM | NCc1nc2c(N3CCN(Cc4cccnc4)CC3)c(Br)cnc2[nH]1 [Example 100, (6-Bromo-7-(4-(pyridin-3-ylmethyl)piperazin-1-yl)-3H-imidazo[4,5-b]pyridin-2-yl)methanamine]
19 | < 500 nM | 500 to 2000 nM | CN1CCN(c2ccc(-c3nc4c(N5CCN(Cc6cccnc6)CC5)c(Br)cnc4[nH]3)cc2)CC1 [Example 101, 6-Bromo-2-(4-(4-methylpiperazin-1-yl)phenyl)-7-(4-(pyridin-3-ylmethyl)piperazin-1-yl)-3H-imidazo[4,5-b]pyridine]
20 | < 500 nM | < 500 nM | Brc1cnc2[nH]c(-c3ccc(N4CCOCC4)cc3)nc2c1N1CCN(Cc2cccnc2)CC1 [Example 102, 4-(4-(6-Bromo-7-(4-(pyridin-3-ylmethyl)piperazin-1-yl)-3H-imidazo[4,5-b]pyridin-2-yl)phenyl)morpholine]
21 | < 500 nM | < 500 nM | Brc1cnc2[nH]c(-c3ccc(N4CCNCC4)cc3)nc2c1N1CCN(Cc2cccnc2)CC1 [Example 104, 6-Bromo-2-(4-(piperazin-1-yl)phenyl)-7-(4-(pyridin-3-ylmethyl)piperazin-1-yl)-3H-imidazo[4,5-b]pyridine]

Row | Compound | IC50 (Aurora-A) | IC50 (HCT116 cells)
22 | COc1ccc(-c2nc3c(N4CCN(CC5CC5)CC4)c(Br)cnc3[nH]2)cc1 [Example 73, 6-Bromo-7-(4-cyclopropylmethyl-piperazin-1-yl)-2-(4-methoxy-phenyl)-3H-imidazo[4,5-b]pyridine] | 500 to 2000 nM | 500 to 2000 nM
23 | COc1ccc(-c2nc3c(N4CCN(Cc5cc(C)on5)CC4)c(Br)cnc3[nH]2)cc1 [Example 74, 6-Bromo-2-(4-methoxy-phenyl)-7-[4-(5-methyl-isoxazol-3-ylmethyl)-piperazin-1-yl]-3H-imidazo[4,5-b]pyridine] | < 500 nM | < 500 nM
24 | Clc1cnc2[nH]c(-c3ccc(CN4CCOCC4)cc3)nc2c1N1CCN(Cc2cccnc2)CC1 [Example 79, 6-Chloro-2-(4-morpholin-4-ylmethyl-phenyl)-7-(4-pyridin-3-ylmethyl-piperazin-1-yl)-3H-imidazo[4,5-b]pyridine] | < 500 nM | < 500 nM
25 | Cc1cc(CN2CCN(c3c(Cl)cnc4[nH]c(-c5ccc(CN6CCOCC6)cc5)nc34)CC2)no1 [Example 80, 6-Chloro-7-[4-(5-methyl-isoxazol-3-ylmethyl)-piperazin-1-yl]-2-(4-morpholin-4-ylmethyl-phenyl)-3H-imidazo[4,5-b]pyridine] | < 500 nM | 500 to 2000 nM
26 | CN(C)c1ccc(-c2nc3c(N4CCN(CC(=O)N(C)c5nccs5)CC4)c(Br)cnc3[nH]2)cc1 [Example 89, 2-(4-(6-Bromo-2-(4-(dimethylamino)phenyl)-3H-imidazo[4,5-b]pyridin-7-yl)piperazin-1-yl)-N-methyl-N-(thiazol-2-yl)acetamide] | < 500 nM | < 500 nM
27 | CN(C)c1ccc(-c2nc3c(N4CCC(CC(=O)Nc5nccs5)CC4)c(Br)cnc3[nH]2)cc1 [Example 90, 2-{1-[6-Bromo-2-(4-dimethylamino-phenyl)-3H-imidazo[4,5-b]pyridin-7-yl]-piperidin-4-yl}-N-thiazol-2-yl-acetamide] | < 500 nM | 500 to 2000 nM
